Tests used:
[1] = test system: C2C12 cells; assay: Mitochondrial membrane potential by TMRM fluorescence; type: cell-based, mouse; conditions: 20 min
Procedure: Mitochondrial membrane potential was measured using tetramethylrhodamine methyl ester (TMRM, Life Technologies) fluorescence. C2C12 cells were plated in 6-well plates and grown to 80-90% confluence. Cells were then washed once with PBS and switched into Seahorse respiration buffer with the indicated compounds at the indicated concentrations: TMRM (100 nM), oligomycin (1 μM), FCCP (0.4 μM), and C18:1-Phe (10 or 50 μM). After 20 min. incubation at 37° C., the media was aspirated, cells were washed once with PBS, and trypsinized. Trypsinized cells were directly resuspended in PBS (total volume 300 μl), stored on ice, and analyzed on a FACSCanto™ II (BD Biosciences) with 20,000 events per sample.

[2] = test system: differentiated primary iWAT cells; assay: Cellular oxygen consumption rate (Seahorse XF24), differentiated primary iWAT adipocytes; type: cell-based, mouse; conditions: 50 μM, in presence of oligomycin (1 μM)
Procedure: (§1) C2C12, U2O5, and 293A cells were cultured in DMEM with 10% FBS and pen/strep. Primary inguinal (iWAT) and brown (BAT) adipocytes were obtained as follows. The stromal-vascular fraction of inguinal (iWAT) pad from 4-12 week old male mice was dissected, minced, and digested for 45 min. at 37° C. in PBS containing 10 mM CaCl2, 2.4 U/ml dispase II (Roche), and 1.5 U/ml collagenase D (Roche). The stromal-vascular fraction of brown fat (BAT) pads from newborn (P1-P14) pups was dissected, minced, and digested for 45 min at 37° C. in PBS containing 1.3 mM CaCl2, 120 mM NaCl, 5 mM KCl, 5 mM glucose, 100 mM HEPES, 4% BSA, and 1.5 mg/ml collagenase B (Roche). Digested tissue was diluted with adipocyte culture media (DMEM/F-12, GlutaMAX™ supplement, Life Technologies, with 10% FBS and pen/strep) and centrifuged (600×g for 10 min.). The pellet was resuspended in 10 ml adipocyte culture media, strained through a 40 μm filter, and plated. Differentiation was induced by application of an adipogenic cocktail containing 5 μg/ml insulin (Sigma), 5 μM dexamethasone (Sigma), 250 μM isobutylmethylxanthine (Sigma), and 1 μM rosiglitazone (Cayman) for 2 days. Two days after induction, cells were maintained in adipocyte culture media containing 5 μg/ml insulin and 1 μM rosiglitazone.
(§2) Cellular oxygen consumption rates were determined using an XF24 Extracellular Flux Analyzer (Seahorse Biosciences). Oligomycin was purchased from EMD Millipore, and FCCP and rotenone were purchased from Sigma. C2C12 or U2OS cells were seeded at 30,000 or 50,000 cells/well, respectively in an XF24 cell culture microplate (V7-PS, Seahorse Bioscience) and analyzed the following day. Primary iWAT or BAT adipocytes were seeded at 15,000 cells/well, differentiation was induced the following day as described, and the cells were analyzed on day 5. On the day of analysis, the cells were washed once with Seahorse respiration buffer (8.3 g/1 DMEM, 1.8 g/l NaCl, 1 mM pyruvate, 20 mM glucose, pen/strep), placed in 0.5 ml Seahorse respiration buffer, and incubated in a CO2-free incubator for 1 hr. Port injection solutions were prepared as follows (final concentrations in assay in parentheses): 10 μM oligomycin (1 μM final), […] amino acid (50 μM final), 2 μM FCCP (0.2 μM final), and 30 μM rotenone (3 μM final). The Seahorse program was run as follows: basal measurement, 3 cycles; inject port A (oligomycin), 3 cycles; inject port B (compounds), 8 cycles; inject port C (FCCP), 3 cycles; inject port D (rotenone), 3 cycles. Each cycle consisted of mix 4 min, wait 0 min, and measure 2 min. For data expressed as a percentage of oligomycin-treated basal, the respiration at cycle 6 was normalized to 100%, and the maximum respiration at any time point between cycles 7 and 15 inclusive was used.

[3] = test system: primary inguinal fat cells, primary BAT cells, C2C12 cells, and U2OS cells; assay: Uncoupled respiration cellular assays (variety of cell types); type: cell-based; conditions: N-acyl amino acids at 10-100 uM
Procedure: as §2

[4] = test system: Diet induced obese (DIO) mice; assay: Chronic daily i.p. administration of N-acyl amino acids to DIO mice (body weight, food intake, body composition, GTT); type: in vivo, mouse; conditions: chronic treatment, C18:1-Phe 30 or 50 mg/kg/day, C20:4-Gly 15 mg/kg/day, i.p.
Procedure: (§3) Animal experiments were performed according to procedures approved by the Beth Israel Deaconess Medical Center IACUC. Mice were maintained in 12 h light-dark cycles at 22° C. and fed a standard irradiated rodent chow diet. All experiments on wild-type mice were performed with male C57BL/6 mice purchased from Jackson Laboratories, except for the AAV experiments, which were performed with male C57BL/6 mice from Charles River. UCP1-KO (stock #017476) and 16-20 week DIO mice (stock #380050) were obtained from Jackson Laboratories. For AAV injection experiments, mice were gently warmed using a 250 W clear infrared heat lamp, immobilized, and injected via tail vein with 10^10 virus/mouse (diluted in saline) in a total volume of 100 μl/mouse. Where indicated, mice were placed on high-fat diet (60% fat, Research Diets). For cold exposure experiments, mice were group housed and placed at 4° C. for the indicated times. For the preparation of C18:1-Phe for in vivo injections, compounds were dissolved in 18:1:1 v/v/v saline:Kolliphor® EL (Sigma Aldrich):DMSO and sonicated until homogeneous. Mice were administered compounds at 5 μl/g body weight at the indicated doses. For all injection experiments, mice were mock injected with saline daily for 3 days prior to the start of the experiments. For glucose tolerance tests (GTTs), mice received their final dose of compound the day prior to the assay and were then fasted overnight. Glucose was administered at 1.5 g/kg.
(§4) Energy expenditure, O2 consumption, CO2 production, respiratory exchange ratio, total locomotor activity, and food intake measurements were made with a 16-cage Columbus Instruments Oxymax Comprehensive Lab Animal Monitoring System (CLAMS) at ambient room temperature (21-23° C.). Mice were acclimated for one day in metabolic cages prior to data collection. Whole-body composition was assessed with an EchoMRI™ 3-in-1 on conscious mice.

[5] = test system: Diet induced obese (DIO) mice; assay: Indirect calorimetry (CLAMS) of high fat diet/DIO mice treated with N-acyl amino acids; type: in vivo, mouse; conditions: daily i.p.: C18:1-Leu 25, C18:1-Phe 30, C20:4-Gly 15 mg/kg/day
Procedure: as §3, §4

[6] = Plasma AST, ALT and cytokine array after chronic treatment of DIO mice; type: in vivo, mouse; conditions: 9 days chronic treatment, versus vehicle
Procedure: FIG. 14 includes 11 panels, identified as panels A, B, C, D, E, F, G, H, I, J, and K, which show the effects of chronic C20:4-Gly administration to mice. Panels A-F show the change in body weight (Panel A), daily and cumulative food intake (Panels B and C), and total body weight at day 7 (Panel D), VO2 (Panel E), and movement (Panel F) of 14 week DIO mice treated daily with vehicle or C20:4-Gly (20 mg/kg/day, i.p.). For Panels E and F, measurements were recorded for 2 days following 7 days chronic treatment with vehicle or C20:4-Gly (20 mg/kg/day, i.p.); during this time daily administration of the indicated compounds continued. […] Panels G-J show plasma AST (Panel G), ALT (Panel H), and plasma cytokine array profiling (Panels I and J) following 9 days chronic treatment with vehicle or C20:4-Gly (20 mg/kg/day, i.p.). For Panels G-J, plasma was collected 24 hr following the last dose of vehicle or C20:4-Gly. For Panels A-H, n=8/group, mean±SEM, *p<0.05, **p<0.01. For Panels I and J, plasma from 4 mice/group were pooled for each array.

[7] = test system: U2OS cells; assay: Cellular oxygen consumption rate (uncoupled respiration), U2OS cells; type: cell-based, human; conditions: 50 μM, after oligomycin 1 μM
Procedure: as §1, §2

For `N#CC(C#N)=NNc1ccc(OC(F)(F)F)cc1` [FCCP], the “decrease of TMRM fluorescence” value ([1]; co-treatment with oligomycin 1 μM, C18:1-Phe 50 μM, FCCP 0.4 μM) was roughly 70%.

For `CCCCC/C=C\C/C=C\C/C=C\C/C=C\CCCC(=O)NCC(=O)O` [C20:4-Gly, N-arachidonoyl glycine], the “maximal OCR versus DMSO at the same time point” value [2] was 285%, the “maximal OCR versus oligomycin-treated basal respiration” value [2] was 295% and the “uncoupled respiration in cells” value [3] was “increased uncoupled respiration”. The food intake [4] was “reduced food intake”, the VO2 [5] was “significantly augmented” and the movement [5] was “no effects”. For the same compound, the “plasma ALT” value [6] was “no sigificant elevations”, the “plasma AST” value [6] was “no sigificant elevations” and the plasma cytokines [6] was “no sigificant elevations”.

With `CCCCCCCCCCCCCCCC(=O)N[C@@H](Cc1ccccc1)C(=O)O` [N-palmitoyl phenylalanine, Palmitoyl-L-phenylalanine] the “uncoupling activity (uncoupled respiration)” value [7] was “possessed uncoupling activity” and the “uncoupled respiration in cells” value [3] was “increased uncoupled respiration”.

In the case of `CC[C@H]1/C=C/C=C/C[C@@H](C)[C@H](O)[C@@](C)(O)C(=O)[C@@H](C)[C@H](O)[C@@H](C)C(=O)[C@@H](C)[C@H](O)[C@@H](C)/C=C/C(=O)O[C@@H]2[C@H](C)[C@H](CC1)O[C@]1(CC[C@H](C)[C@H](C[C@@H](C)O)O1)[C@H]2C` [oligomycin], the mitochondrial membrane potential ([1]; TMRM fluorescence) is reported as “increased the membrane potential”.
